SMILES: CS(=O)(=O)Nc1ccc2c(c1)S(=O)(=O)N=C(C1=C(O)[C@@H]3C4CCC(CC4)[C@@H]3N(Cc3ccc(F)cc3)C1=O)N2
- melting point: 203.8 to 205.7 °C
